Laboratory results from patent US10285989B2, “Pyrimidinone amide compounds as PDE2 inhibitors” (Merck Sharp & Dohme Corp., priority 2015, dated 2019).
Like-named read-outs stand apart in the source and are kept apart here.

Tests used:
Rhesus PDE2A3 = Rhesus PDE2A3 (Macaca mulatta, UniProt B3VTJ2); test: PDE2 fluorescence polarization (IMAP FP) inhibition assay, rhesus PDE2A3; assay type: biochemical, rhesus macaque; settings: for inhibition at 1 µM: read-out: Rhesus PDE2 % inhibition at a given concentration - Lab A
Sequence of Rhesus PDE2A3 (B3VTJ2 1-941): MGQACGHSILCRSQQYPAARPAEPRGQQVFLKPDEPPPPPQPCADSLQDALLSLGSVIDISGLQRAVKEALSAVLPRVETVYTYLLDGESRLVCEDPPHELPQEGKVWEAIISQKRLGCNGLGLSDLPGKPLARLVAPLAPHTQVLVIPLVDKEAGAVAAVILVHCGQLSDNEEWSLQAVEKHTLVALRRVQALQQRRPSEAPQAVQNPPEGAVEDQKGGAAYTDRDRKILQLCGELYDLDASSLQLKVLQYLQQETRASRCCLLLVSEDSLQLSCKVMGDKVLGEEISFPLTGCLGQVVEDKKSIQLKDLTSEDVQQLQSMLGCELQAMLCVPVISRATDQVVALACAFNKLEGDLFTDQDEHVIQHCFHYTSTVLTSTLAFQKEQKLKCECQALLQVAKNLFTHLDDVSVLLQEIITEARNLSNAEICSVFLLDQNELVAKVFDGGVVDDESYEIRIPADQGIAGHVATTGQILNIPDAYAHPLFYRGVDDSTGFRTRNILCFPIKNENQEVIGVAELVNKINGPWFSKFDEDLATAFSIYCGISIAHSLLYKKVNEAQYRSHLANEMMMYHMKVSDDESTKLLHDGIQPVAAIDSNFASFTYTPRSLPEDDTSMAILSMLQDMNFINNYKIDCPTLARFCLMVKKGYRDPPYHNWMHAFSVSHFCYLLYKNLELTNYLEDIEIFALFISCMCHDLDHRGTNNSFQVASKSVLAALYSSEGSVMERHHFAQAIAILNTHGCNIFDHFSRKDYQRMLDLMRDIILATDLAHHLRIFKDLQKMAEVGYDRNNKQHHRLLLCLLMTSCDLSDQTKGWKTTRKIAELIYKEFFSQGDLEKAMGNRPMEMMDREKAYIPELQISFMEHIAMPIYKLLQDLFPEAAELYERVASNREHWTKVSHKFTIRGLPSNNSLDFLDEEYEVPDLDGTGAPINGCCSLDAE
Method: A Labcyte Echo 555 (Labcyte, Sunnyvale, Calif.) is used to dispense 200 nL from each well of the titration plate to the 384 well assay plate. Ten microliters of a solution of enzyme (1/2000 final dilution from aliquots; sufficient to produce 20% substrate conversion) was added to the assay plate. Next 10 uL of a separate solution of the substrate FAM-labeled cAMP (50 nM final concentration product # R^7506 from Molecular Devices) and the activator cGMP (1 uM final concentration), prepared in the assay buffer (10 mM Tris HCl, pH 7.2, 10 mM MgCl2, 0.05% NaN3 0.01% Tween-20, and 1 mM DTT) was added to the assay plate and shaken to mix. The reaction is allowed to proceed at room temperature for 60 minutes. A binding solution is then made from the kit components, comprised of 80% Solution A, 20% Solution B and binding reagent at a volume of 1/600 the total binding solution. The enzymatic reaction is stopped by addition of 60 μL of the binding solution to each well of the assay plates and the plates are sealed and shaken for 30 seconds. The plate was incubated at room temperature for at least one hour prior to determining the fluorescence polarization (FP). The parallel and perpendicular fluorescence of each well of the plate was measured using a Tecan Genios Pro plate reader (Tecan, Switzerland) or Perkin Elmer EnVision™ plate reader (Waltham, Mass.). Fluorescence polarization (mP) was calculated from the parallel (S) and perpendicular (P) fluorescence of each sample well and the analogous values for the median control well, containing only substrate (So and Po), using the following equation: Polarization (mP)=1000*(S/So−P/Po)/(S/So+P/Po).
Dose-inhibition profiles for each compound were characterized by fitting the mP data to a four-parameter equation given below.
An apparent (KM) for FAM-labeled cAMP of ˜10 uM was used.

human PDE2A1 = human PDE2A1 (Homo sapiens (Human), UniProt O00408); test: PDE2 IMAP FP inhibition assay, human PDE2A1 (selectivity panel format); assay type: biochemical
Sequence of human PDE2A1 (O00408 other isoform, or with tags, fused parts or gaps): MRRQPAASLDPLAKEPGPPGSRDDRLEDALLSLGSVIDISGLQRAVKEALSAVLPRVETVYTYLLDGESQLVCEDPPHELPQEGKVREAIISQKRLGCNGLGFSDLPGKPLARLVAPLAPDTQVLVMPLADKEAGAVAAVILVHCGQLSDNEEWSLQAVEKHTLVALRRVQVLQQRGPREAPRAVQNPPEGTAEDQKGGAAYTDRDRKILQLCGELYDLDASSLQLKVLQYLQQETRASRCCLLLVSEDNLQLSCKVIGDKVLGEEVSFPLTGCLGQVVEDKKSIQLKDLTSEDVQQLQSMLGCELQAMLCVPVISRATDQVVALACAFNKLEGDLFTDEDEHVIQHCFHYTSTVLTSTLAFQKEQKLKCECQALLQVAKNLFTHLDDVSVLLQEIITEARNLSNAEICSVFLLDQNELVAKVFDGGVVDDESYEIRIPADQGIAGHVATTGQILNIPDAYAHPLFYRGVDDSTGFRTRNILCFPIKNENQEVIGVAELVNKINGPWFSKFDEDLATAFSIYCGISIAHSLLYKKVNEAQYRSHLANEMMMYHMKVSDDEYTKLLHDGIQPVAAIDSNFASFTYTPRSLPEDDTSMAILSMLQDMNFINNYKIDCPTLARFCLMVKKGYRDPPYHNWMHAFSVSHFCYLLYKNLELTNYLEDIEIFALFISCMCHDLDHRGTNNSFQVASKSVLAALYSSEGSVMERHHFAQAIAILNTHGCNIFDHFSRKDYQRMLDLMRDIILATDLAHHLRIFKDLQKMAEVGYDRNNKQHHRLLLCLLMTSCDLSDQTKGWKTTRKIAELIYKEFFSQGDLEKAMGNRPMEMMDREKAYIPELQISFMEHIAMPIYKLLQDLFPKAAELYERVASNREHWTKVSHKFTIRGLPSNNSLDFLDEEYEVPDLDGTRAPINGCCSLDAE
Method: Selectivity for PDE2, as compared to other PDE families, was assessed using the IMAP® technology. Human PDE10A2 enzyme was prepared from cytosolic fractions of transiently transfected HEK cells.
A Labcyte POD 810 (Labcyte, Sunnyvale, Calif.) was used to dispense 200 nL from each well of the titration plate to make eleven copies of the assay plate for each titration, one copy for each PDE enzyme. A solution of each enzyme (dilution from aliquots, sufficient to produce 20% substrate conversion) and a separate solution of FAM-labeled cAMP or FAM-labeled cGMP from Molecular Devices (Sunnyvale, Calif., product # R7506 or cGMP#R7508), at a final concentration of 50 nM were made in the assay buffer (10 mM Tris HCl, pH 7.2, 10 mM MgCl2, 0.05% NaN3 0.01% Tween-20, and 1 mM DTT). Note that the substrate for PDE2 is 50 nM FAM cAMP containing 1000 nM of cGMP. The enzyme and the substrate were then added to the assay plates in two consecutive additions of 10 μL and then shaken to mix. The reaction was allowed to proceed at room temperature for 60 minutes. A binding solution was then made from the kit components, comprised of 80% Solution A, 20% Solution B and binding reagent at a volume of 1/600 the total binding solution. The enzymatic reaction was stopped by addition of 60 μL of the binding solution to each well of the assay plate. The plates were sealed and shaken for 10 seconds. The plates were incubated at room temperature for one hour, then the parallel and perpendicular fluorescence was measured using a Tecan Genios Pro plate reader (Tecan, Switzerland). […] The intrinsic PDE2 inhibitory activity of a compound which may be used in accordance with the present invention may be determined by these assays. […]

[1] = Lab B, read-out: Rhesus PDE2 Ki (nM) - Lab B
[2] = Lab B, read-out: Human PDE2 Ki (nM) - Lab B
[3] = Rhesus PDE2 Ki (nM) - Lab B, Lab B
[4] = Lab A, read-out: Rhesus PDE2 Ki (nM) - Lab A

Row | SMILES | Ki (Rhesus PDE2A3; [4]) [nM] | also measured
1 | CN(C)c1nc(C(=O)NC(c2ccc(C3(C)CC3)c(F)c2)C(C)(C)C)cc(=O)[nH]1 (single isomer, unassigned) [Example 124, (R)- or (S)-2-(dimethylamino)-N-{1-[3-fluoro-4-(1-methylcyclopropyl)phenyl]-2,2-dimethylpropyl}-6-oxo-1,6-dihydropyrimidine-4-carboxamide] | – | Ki (Rhesus PDE2A3; [1]): 0.45 nM; Ki (human PDE2A1; [2]): 0.34 nM
2 | CC(C)C(C)(NC(=O)c1cc(=O)[nH]c(N(C)C)n1)c1ccc(S(F)(F)(F)(F)F)cc1 (single isomer, unassigned) [Example 172, (R)- or (S)-2-dimethylamino)-N-{1,2-dimethyl-1-[4-(pentafluoro-λ^6-sulfanyl)phenyl]propyl}-6-oxo-1,6-dihydropyrimidine-4-carboxamide] | – | Ki (Rhesus PDE2A3; [3]): 154 nM
3 | C[C@@H](NC(=O)c1cc(=O)[nH]c(N(C)C)n1)c1ccc(OC(F)(F)F)c(Cl)c1 [Example 3, (R)—N-(1-(3-chloro-4-(trifluoromethoxy)phenyl)ethyl)-2-(dimethylamino)-6-oxo-1,6-dihydropyrimidine-4-carboxamide] | 0.82 | Ki (Rhesus PDE2A3; [1]): 1.5 nM; Ki (human PDE2A1; [2]): 1.6 nM
4 | Cc1cnn(-c2nc(C(=O)N[C@H](C)c3ccc(C(F)(F)F)cc3)cc(=O)[nH]2)c1 [Example 7, (R)-2-(4-methyl-1H-pyrazol-1-yl)-6-oxo-N-(1-(4-(trifluoromethyl)phenyl)ethyl)-1,6-dihydropyrimidine-4-carboxamide] | – | inhibition at 1 µM (Rhesus PDE2A3; Lab A): 25%
5 | Cc1ccn(-c2nc(C(=O)N[C@H](C)c3ccc(C(F)(F)F)cc3)cc(=O)[nH]2)n1 [Example 8, (R)-2-(3-methyl-1H-pyrazol-1-yl)-6-oxo-N-(1-(4-(trifluoromethyl)phenyl)ethyl)-1,6-dihydropyrimidine-4-carboxamide] | – | inhibition at 1 µM (Rhesus PDE2A3; Lab A): 30%
6 | C[C@@H](NC(=O)c1cc(=O)[nH]c(-n2cccn2)n1)c1ccc(C(F)(F)F)cc1 [Example 9, (R)-6-oxo-2-(1H-pyrazol-1-yl)-N-(1-(4-(trifluoromethyl)phenyl)ethyl)-1,6-dihydropyrimidine-4-carboxamide] | – | inhibition at 1 µM (Rhesus PDE2A3; Lab A): 26%
7 | C[C@@H](NC(=O)c1cc(=O)[nH]c(N2CC[C@@H](F)C2)n1)c1ccc(C(F)(F)F)cc1 [Example 11, 2-((R)-3-fluoropyrrolidin-1-yl)-6-oxo-N—((R)-1-(4-(trifluoromethyl)phenyl)ethyl)-1,6-dihydropyrimidine-4-carboxamide] | 30 | Ki (human PDE2A1; Lab A, read-out: Human PDE2 Ki (nM) - Lab A): 18 nM
8 | COCC1CCN(c2nc(C(=O)N[C@@H](c3ccc(C(F)(F)F)cc3)C(C)(C)C)cc(=O)[nH]2)C1 (stereo partly drawn) [Example 14, N—((R)-2,2-dimethyl-1-(4-(trifluoromethyl)phen)propyl)-2-(3-(methoxymethyl)pyrrolidin-1-yl)-6-oxo-1,6-dihydropyrimidine-4-carboxamide] | – | Ki (Rhesus PDE2A3; [3]): 0.41 nM; Ki (human PDE2A1; [2]): 0.34 nM
9 | CSc1nc(C(=O)N[C@@H](C)c2ccc(C(F)(F)F)cc2)cc(=O)[nH]1 [Example 16, (S)-2-(methylthio)-6-oxo-N-(1-(4-(trifluoromethyl)phenyl)ethyl)-1,6-dihydropyrimidine-4-carboxamide] | 13300 | –
10 | C[C@@H](NC(=O)c1cc(=O)[nH]c(Oc2ccccc2)n1)c1ccc(C(F)(F)F)cc1 [Example 19, (R)-6-oxo-2-phenoxy-N-(1-(4-(trifluoromethyl)phenyl)ethyl)-1,6-dihydropyrimidine-4-carboxamide] | 2930 | –
11 | COCCOc1nc(C(=O)NC(C)c2ccc(C(F)(F)F)cc2)cc(=O)[nH]1 (centres unmarked) [Example 21, 2-(2-Methoxyethoxy)-6-oxo-N-(1-(4-(trifluoromethyl)phenyl)ethyl)-1,6-dihydropyrimidine-4-carboxamide] | 657 | –
12 | CNCCCOc1nc(C(=O)NC(C)c2ccc(C(F)(F)F)cc2)cc(=O)[nH]1 (centres unmarked) [Example 180, 2-[3-(methylamino)propoxy]-6-oxo-N-{1-[4-(trifluoromethyl)phenyl]ethyl}-1,6-dihydro-pyrimidine-4-carboxamide] | 86000 | –
13 | CC(NC(=O)c1cc(=O)[nH]c(OC2CCN(C)C2)n1)c1ccc(C(F)(F)F)cc1 (centres unmarked) [Example 181, 2-[(1-methylpyrrolidin-3-yl)oxy]-6-oxo-N-{1-[4-(trifluoromethyl)phenyl]ethyl}-1,6-dihydro pyrimidine-4-carboxamide] | > 100000 | –
14 | CC(NC(=O)c1cc(=O)[nH]c(OC2CCCN(C)C2)n1)c1ccc(C(F)(F)F)cc1 (centres unmarked) [Example 182, 2-[(1-methylpiperidin-3-yl)oxy]-6-oxo-N-{1-[4-(trifluoromethyl)phenyl]ethyl}-1,6-dihydro pyrimidine-4-carboxamide] | 55000 | –
15 | CC(NC(=O)c1cc(=O)[nH]c(OCCN(C)C)n1)c1ccc(C(F)(F)F)cc1 (centres unmarked) [Example 184, 2-[2-(dimethylamino)ethoxy]-6-oxo-N-{1-[4-(trifluoromethyl)phenyl]ethyl}-1,6-dihydro-pyrimidine-4-carboxamide] | 72000 | –
16 | CC(NC(=O)c1cc(=O)[nH]c(OC2CCNC2)n1)c1ccc(C(F)(F)F)cc1 (centres unmarked) [Example 185, 6-oxo-2-(pyrrolidin-3-yloxy)-N-{1-[4-(trifluoromethyl)phenyl]ethyl}-1,6-dihydropyrimidine-4-carboxamide] | > 100000 | –
17 | COC(C)(C)CCOc1nc(C(=O)NC(C)c2ccc(C(F)(F)F)cc2)cc(=O)[nH]1 (centres unmarked) [Example 186, 2-(3-methoxy-3-methylbutoxy)-6-oxo-N-{1-[4-(trifluoromethyl)phenyl]ethyl}-1,6-dihydro pyrimidine-4-carboxamide] | 352 | –
18 | CC(NC(=O)c1cc(=O)[nH]c(OC2CCNCC2)n1)c1ccc(C(F)(F)F)cc1 (centres unmarked) [Example 187, 6-oxo-2-(piperidin-4-yloxy)-N-{1-[4-(trifluoromethyl)phenyl]ethyl}-1,6-dihydropyrimidine-4-carboxamide] | > 100000 | –
19 | CC(NC(=O)c1cc(=O)[nH]c(OCC2(C)COC2)n1)c1ccc(C(F)(F)F)cc1 (centres unmarked) [Example 188, 2-[(3-methyloxetan-3-yl)methoxy]-6-oxo-N-{1-[4-(trifluoromethyl)phenyl]ethyl}-1,6-dihydropyrimidine-4-carboxamide] | 12600 | –
20 | CNCCOc1nc(C(=O)NC(C)c2ccc(C(F)(F)F)cc2)cc(=O)[nH]1 (centres unmarked) [Example 189, 2-[2-(methylamino)ethoxy]-6-oxo-N-{1-[4-(trifluoromethyl)phenyl]ethyl}-1,6-dihydropyrimidine-4-carboxamide] | 9310 | –
21 | CC(NC(=O)c1cc(=O)[nH]c(OC2CCN(C)CC2)n1)c1ccc(C(F)(F)F)cc1 (centres unmarked) [Example 190, 2-[(1-methylpiperidin-4-yl)oxy]-6-oxo-N-{1-[4-(trifluoromethyl)phenyl]ethyl}-1,6-dihydro-pyrimidine-4-carboxamide] | > 100000 | –
22 | CC(NC(=O)c1cc(=O)[nH]c(OC2CCCNC2)n1)c1ccc(C(F)(F)F)cc1 (centres unmarked) [Example 191, 6-oxo-2-(piperidin-3-yloxy)-N-{1-[4-(trifluoromethyl)phenyl]ethyl}-1,6-dihydropyrimidine-4-carboxamide] | > 100000 | –
23 | CC(NC(=O)c1cc(=O)[nH]c(OC2COC2)n1)c1ccc(C(F)(F)F)cc1 (centres unmarked) [Example 192, 2-(oxetan-3-yloxy)-6-oxo-N-{1-[4-(trifluoromethyl)phenyl]ethyl}-1,6-dihydropyrimidine-4-carboxamide] | 11500 | –
24 | CC(NC(=O)c1cc(=O)[nH]c(OC2CCOC2)n1)c1ccc(C(F)(F)F)cc1 (centres unmarked) [Example 193, 6-oxo-2-(tetrahydrofuran-3-yloxy)-N-{1-[4-(trifluoromethyl)phenyl]ethyl}-1,6-dihydropyrimidine-4-carboxamide] | 1060 | –
